Literature values as cited in US20250281408A1, “AMORPHOUS SOLID DISPERSIONS AND PHARMACEUTICAL COMPOSITIONS COMPRISING THE SAME” (Shenzhen Pharmacin Co., Ltd., priority 2022, published 2025).
Where two headings read alike, the source gives them in different places. Values belong to the compound of their own block, whether it stands above or below them.

Legend:
[1] = relative to fasted conditions, healthy subjects
[2] = fed conditions
[3] = high-fat or low-fat meal

SMILES: CC(=O)O[C@H]1CC[C@@]2(C)C(=CC[C@@H]3[C@@H]2CC[C@]2(C)C(c4cccnc4)=CC[C@@H]32)C1 [Abiraterone Acetate]
solubility in water: very poorly water soluble

SMILES: COc1cc2nccc(Oc3ccc(NC(=O)C4(C(=O)Nc5ccc(F)cc5)CC4)cc3)c2cc1OC [Cabozantinib]
solubility in aqueous solution / aqueous media: practically insoluble
increase of AUC by a high-fat meal [1]: 57%
increase of Cmax by a high-fat meal [1]: 41%

SMILES: O=C1[C@@H]2[C@H]3CC[C@H](C3)[C@@H]2C(=O)N1C[C@@H]1CCCC[C@H]1CN1CCN(c2nsc3ccccc23)CC1 [lurasidone]
solubility in water: very slightly soluble

SMILES: Cc1ccc(Nc2nccc(N(C)c3ccc4c(C)n(C)nc4c3)n2)cc1S(N)(=O)=O [pazopanib]
solubility in aqueous media (above pH 4): practically insoluble
solubility in aqueous media (pH 1): very slightly soluble
increase in AUC with food [3]: approximately 2 fold
increase in Cmax with food [3]: approximately 2 fold

The next lines start with the values.

solubility in water: poor water solubility
SMILES: CC1(C)CCC(CN2CCN(c3ccc(C(=O)NS(=O)(=O)c4ccc(NCC5CCOCC5)c([N+](=O)[O-])c4)c(Oc4cnc5[nH]ccc5c4)c3)CC2)=C(c2ccc(Cl)cc2)C1 [Venetoclax]

solubility in aqueous solution / aqueous media: very hard to dissolve
absolute bioavailability [2]: 37%
SMILES: CCc1cc2c(cc1N1CCC(N3CCOCC3)CC1)C(C)(C)c1[nH]c3cc(C#N)ccc3c1C2=O [alectinib]

solubility in water: very slightly soluble
SMILES: N#Cc1ccc2[nH]cc(CCCCN3CCN(c4ccc5oc(C(N)=O)cc5c4)CC3)c2c1 [vilazodone]
